These results are taken from USRE30354E, “Novel ethereally monosubstituted monosaccharides” (Strategic Medical Research Corp., priority 1978, dated 1980).

One data set concerns herpes simplex virus. The experiment in a line: inhibition of herpes simplex virus multiplication in tissue culture (plaque formation technic of Rapp). Type of data set: cell-based. The note with it: for IC50: read-out: Concentration required to exert 50% inhibition of herpes-induced plaque formation; for IC100: read-out: Concentration required to exert 100% inhibition of herpes-induced plaque formation.

Data set [1] has as its system influenza A2 virus, Hong Kong strain. Description: microbe, parasite or virus in culture. Type of data set: cell-based.
The next data set relates to influenza A/PR/8. Description: prevention of death in mice with lethal influenza A/PR/8 infection. Type of data set: in vivo. The note with it: for % of Population Protected / % Mortality: 8 days; for % Mortality: control 95. As to the method: The above medication was also examined for its capacity to prevent death in mice ill with a lethal influenza A/PR/8 infection. The drug was given subcutaneously at 3 dose levels, once 90 minutes before infection.

The subject of another data set is influenza A2 /Hong Kong. Description: suppression of influenza A2/Hong Kong disease in mice (lung weight). The following applies: 40 mg/Kg orally from 24 h post-infection; 8 days; from lung weights; 50% of drug blocked at 1,2- with acetone. It counts as in vivo.
The next data set can be described thus: light sensitivity. Type of data set: physicochemical.
[2] abbreviates: 10 mg/Kg s.c. once 90 min before infection.
Where [3] appears, read: 40 mg/Kg s.c. once 90 min before infection.
[4] abbreviates: 160 mg/Kg s.c. once 90 min before infection.

≈ marks a conversion by molar mass, not a printed value.

`CCN(CC)CCOC1C(C2COC(C)(C)O2)OC2OC(C)(C)OC21` [1,2:5,6-di-O-isopropylidene-3-O-2'-(N',N'-diethylaminoethyl)-D-glucofuranose]: in the data set on herpes simplex virus, the IC50 came to 6 µg/mL (≈ 16.7 µM) and the IC100 stood at 30 µg/mL.

With `CCN(CC)CCO[C@H]1[C@H](O)[C@@H](CO)OC(O)[C@@H]1O` (stereo partly drawn) [3-O-2'-(N',N'-diethylaminoethyl)-D-glucopyranose], in the data set with herpes simplex virus, the IC50 is 2 µg/mL (≈ 7.16 µM) and the IC100 was found to be 20 µg/mL.

For `CC(CN(C)C)O[C@H]1O[C@H](CO)[C@@H](O)[C@H](O)[C@H]1O` (stereo partly drawn) [α-N,N-dimethylaminoisopropyl glucoside, α-N,N-dimethylaminoisopropyl-D-glucoside], in the data set on herpes simplex virus, the IC50 is 10 µg/mL (≈ 37.7 µM) and the IC100 was more than 50 µg/mL. Also, the log reduction at 3 µg/mL in data set [1] (3 μg/ml, 100 TCD50 inoculum, BHK cells, 4.0 is maximum, read-out: Log Decrease in Infectivity of Virus Inoculum) was found to be 1.5. Also, the log reduction at 10 µg/mL in data set [1] (10 μg/ml, 100 TCD50 inoculum, BHK cells, 4.0 is maximum (complete suppression), read-out: Log Decrease in Infectivity of Virus Inoculum) is 2.5.

Take `CN(C)CCCO[C@H]1[C@H](O)[C@@H](CO)OC(O)[C@@H]1O` (stereo partly drawn) [3-O-3'-(N',N'-dimethylamino-n-propyl)-D-glucopyranose]: the IC50 with herpes simplex virus was 0.3 µg/mL (≈ 1.13 µM). Further, the IC100 in the data set with herpes simplex virus is 1 µg/mL. In addition, in the data set with herpes simplex virus (relative to other derivatives of Table 2), the “anti-herpes potency” value was “the most potent derivative”. The “% of Population Protected” value in the data set with influenza A/PR/8 (setting [2]) was found to be 14%; with influenza A/PR/8 (setting [3]), 23%; with influenza A/PR/8 (setting [4]), 50%. For the same compound, the “% Mortality” value in the data set on influenza A/PR/8 (setting [2]) is 81%; with influenza A/PR/8 (setting [3]), 72%; with influenza A/PR/8 (setting [4]), 45%. Besides, the “protection against death” value in the data set with influenza A/PR/8 (3 s.c. dose levels, once 90 minutes before infection) was “significant dose-dependent protection against death”. For the same compound, the “% Disease Suppression” value in the data set on influenza A2 /Hong Kong was found to be 82%. Also, the “potency of virus-inhibiting effect” value in data set [1] was “the most potent effect”.

With `CC(CN(C)C)O[C@H]1[C@H](O)[C@@H](CO)OC(O)[C@@H]1O` (stereo partly drawn) [3-O-2'-(N',N'-dimethylaminopropyl)-D-glucopyranose], in the data set on herpes simplex virus (herpes simplex, tissue culture), the “Concentration required to exert 50% inhibition of herpes-induced plaque formation” value turned out to be 3 µg/mL and the “Concentration required to exert 100% inhibition of herpes-induced plaque formation” value was less than 20 µg/mL.

For `CN(C)CCCOC[C@H]1OC(O)[C@H](O)[C@@H](O)[C@H]1O` (stereo partly drawn) [6-O-3'-(N',N'-dimethylamino-n-propyl)-D-galactopyranose], in the data set on herpes simplex virus, the IC50 came to 2 µg/mL (≈ 7.54 µM) and the IC100 is more than 10 µg/mL.

`CC(CO[C@H]1[C@H](O)[C@@H](CO)OC(O)[C@@H]1O)CN(C)C` (stereo partly drawn) [3-O-3'-(2',N',N'-trimethylamino-n-propyl)-D-glucopyranose]: in the data set on herpes simplex virus, the IC50 was found to be 2 µg/mL (≈ 7.16 µM) and the IC100 was 7 µg/mL.

For the compound 3-O-D-glucopropionitrile, the light sensitivity result in the data set “light sensitivity” was “photosensitive”.

Turning to `NCCCO[C@H]1[C@H](O)[C@@H](CO)OC(O)[C@@H]1O` (stereo partly drawn) [3-O-3'-n-propylamino-D-glucose, 3-O-3'-(n-propylamino)-D-glucopyranose], in the data set with herpes simplex virus, the IC50 stood at 3 µg/mL (≈ 12.6 µM) and the IC100 was more than 20 µg/mL.

As for `CC1(C)OCC(C2OC3OC(C)(C)OC3C2OCCC#N)O1` [di-O-isopropylidene-3-O-3'-propionitrile-D-glucofuranose], the light sensitivity result in the data set “light sensitivity” was “light sensitive”.

In the case of `CN1CCC(O[C@H]2[C@H](O)[C@@H](CO)OC(O)[C@@H]2O)CC1` (stereo partly drawn) [3-O-4'-(N-methylpiperidyl)-D-glucose, 3-O-4'-(N-methylpiperidyl)-D-glucopyranose], in the data set with herpes simplex virus, the IC50 was 0.7 µg/mL (≈ 2.52 µM) and the IC100 turned out to be 6 µg/mL.
